Results as given in patent publication US20200397795A1, “PROPHYLACTIC TREATMENT OF VENOUS THROMBOEMBOLISM” (JANSSEN PHARMACEUTICALS, INC., priority 2019, published 2020).
Where two headings read alike, the source gives them in different places.

Experiments:
[1] = system: bleeding events in high-risk, medically ill subjects; conditions: human, in vivo
Source text: The safety objectives were to compare rivaroxaban with placebo in the following bleeding outcomes in high-risk, medically ill subjects: • Major bleeding using validated International Society on Thrombosis and Haemostasis (ISTH) bleeding criteria. • Non-major clinically relevant (NMCR) bleeding. • Other bleeding.
Safety assessment was based on bleeding events classified by validated ISTH criteria as major bleeding (principal safety outcome), NMCR bleeding, or Other bleeding. […] The safety outcome of NMCR bleeding was defined as overt bleeding not meeting ISTH criteria for major bleeding, but associated with medical intervention, unscheduled contact (visit or telephone call) with a physician, (temporary) cessation of study treatment, or associated with discomfort for the subject such as pain or impairment of activities of daily life. […] Overall safety was also assessed.
The principal safety outcome was major bleeding based on validated ISTH criteria. Treatments were compared using the same statistical model (i.e., Cox proportional hazards model) as that for the primary efficacy outcome. The same analyses were used for NMCR bleeding. Safety analyses were based on the safety analysis set and on-treatment analysis phase. Bleeding events were analyzed based on time from randomization to the first occurrence.

[2] = MAGELLAN (Study 1): pharmacokinetics; format: in vivo, human; conditions: for AUC: plasma
Procedure: A subset of approximately 125 subjects was to be stratified into 5 groups (of 25 subjects) based on the major diagnoses. The following pharmacokinetic (PK) parameters were calculated on Day 1 and Day 10: area under the plasma concentration curve (AUC), area under the curve normalized to body weight (AUCnorm), area under the curve for the expected dosing interval obtained after single dose administration (AUCτ), AUCτ, norm, maximum serum concentration (Cmax), maximum and normalized serum concentration (Cmax, norm), time to reach maximum concentration in plasma (tmax), half-life (t1/2), and total body clearance of drug from plasma calculated after oral administration (CL/F).

[3] = system: events prevented vs bleeding events caused; format: in vivo, human
Source text: The same time period was utilized, preventing double counting for fatal bleeds, with all bleeds through Day 35 included (even if off treatment), and bleeding deaths were not counted as CV deaths. Using the primary endpoint, there would be 131 fewer events in the rivaroxaban group with a number-to-treat to benefit (NNT) of 77 to prevent one event, but this was counterbalanced by causing 51 more major bleeds. The benefit risk profile was improved in the subpopulation, with 182 events prevented and only 18 major bleeds caused, with NNT and number-to-treat to harm (NNH) of 55 and 560, respectively. […] More ischemic events were prevented than hemorrhagic events caused in the subpopulation in all five pairs of clinically meaningful endpoints which included asymptomatic and symptomatic VTE and VTE-related death, major bleeding, and fatal and irreversible thrombotic and bleed events. For 35 days of treatment, the number need to treat to prevent 1 event ranged from 55 to 481 for the 5 pairs, while the number needed to harm ranged from 455-1,067.

[4] = subpopulation, primary endpoint

O=C(NC[C@H]1CN(c2ccc(N3CCOCC3=O)cc2)C(=O)O1)c1ccc(Cl)s1 [Rivaroxaban, 5-chloro-N-({(5S)-2-oxo-3-[4-(3-oxo-4-morpholinyl)phenyl]-1,3,oxazolidin-5-yl}methyl)-2-thiophenecarboxamide]
AEs with onset >2 days from stop of study drug, n (%) [1]: 419 (7.0) % | Any AEs, n (%) ([1]; 45 days): 1438 (24.0) % | Discontinued study drug permanently because of NMCR bleeding ([1]; 45 days): 0.7% | Discontinued study drug permanently due to bleeding ([1]; 45 days): 1.1% | Major and NMCR bleeding, event rate ([1]; 45 days): 1.71 100 pt-45 dy | Major bleeding at a critical site, incidence ([1]; 45 days): 0.05% | Major bleeding, event rate ([1]; 45 days): 0.28 100 pt-45 dy | NMCR bleeding, event rate ([1]; 45 days): 1.43 100 pt-45 dy | Other bleeding, event rate ([1]; 45 days): 0.91 100 pt-45 dy | Post-baseline AEs, n (%) ([1]; 45 days): 1430 (23.9) % | Post-baseline SAEs, n (%) ([1]; 45 days): 465 (7.8) % | SAEs with onset >2 days from stop of study drug, n (%) ([1]; 45 days): 169 (2.8) % | SAEs, n (%) ([1]; 45 days): 460 (7.8) % | TEAE COPD ([1]; 45 days): 1.3% | TEAE diarrhoea ([1]; 45 days): 1.1% | TEAE headache ([1]; 45 days): 1.6% | TEAEs, n (%) ([1]; 45 days): 1198 (20.0) % | TESAEs, n (%) ([1]; 45 days): 337 (5.6) % | Cmax ([2]; Day 10, subjects with acute infectious disease): 178.9 ng/mL | AUC ([2]; human, oral, 10 mg, Day 1, overall, 10 mg): 1640 ng·h/mL | AUC ([2]; human, oral, 10 mg, Day 10, overall, 10 mg): 1360 ng·h/mL | AUC ([2]; human, oral, 10 mg, Day 10, subjects with CHF NYHA IV): 1440 ng·h/mL | AUC ([2]; human, oral, 10 mg, Day 10, subjects with acute infectious disease): 1190 ng·h/mL | Cmax ([2]; human, serum, oral, 10 mg, Day 1, overall, 10 mg, read-out: Cmax): 176 ng/mL | Cmax ([2]; human, serum, oral, 10 mg, Day 10, overall, 10 mg, read-out: Cmax): 189 ng/mL | Cmax ([2]; human, serum, oral, 10 mg, Day 10, subjects with CHF NYHA IV, read-out: Cmax): 192 ng/mL | Number-to-treat to benefit (NNT) to prevent one event ([3]; entire MAGELLAN population, primary endpoint): 77 | Fewer primary endpoint events in the rivaroxaban group ([3]; entire MAGELLAN population, through Day 35): 131 events | Major bleeds caused ([3]; human, in vivo, 35 day): 18 | More major bleeds caused ([3]; human, in vivo, 35 day): 51 | Number needed to harm, range over 5 benefit-risk pairs ([3]; human, in vivo, 35 day): 455-1,067 | Number-to-treat to harm (NNH) ([3]; human, in vivo, 35 day): 560 | Events prevented [3, 4]: 182 events | NNT [3, 4]: 55
